{
  "source": "patent US20070259894A1",
  "about": "“Use of Atazanavir for Improving the Pharmacokinetics of Drugs Metabolized by Ugt1a1” (priority 2004, published 2007)",
  "key": {"[1]": {"assay": "Hygroscopicity by vapor sorption analysis", "type": "physicochemical", "conditions": "equilibrated at 95% RH at 25° C.", "experimental": "Hygroscopicity data was obtained on a VTI Symmetrical Vapor Sorption Analyzer Model SGA-1. Data was collected at room temperature from 5-95% relative humidity and back, 5% relative humidity change per step. Equilibrium conditions were 0.01 weight percent change in 5 minutes with a maximum equilibration time of 180 minutes. […] When equilibrated back down to 5% RH, the material returned back to approximately its dry weight."}, "[2]": {"system": "glucuronidation of Compound A by rat liver microsomes", "assay": "Inhibition by atazanavir of glucuronidation of Compound A by rat liver microsomes", "type": "biochemical", "conditions": "atazanavir at a concentration of 50 μM", "experimental": "The IC50 value of atazanavir for inhibition of glucuronidation of Compound A by human liver microsomes was determined using a pool of human liver microsomes (obtained from Xenotech LLC, Lenexa, Kans.). Compound A (as the potassium salt) was added to human liver microsomes (1.0 mg/mL) in a buffer consisting of 0.1 M potassium phosphate buffer (pH=7.4), 5 mM magnesium chloride, 10 μg/mL alamethicin, and 10 mM D-saccharic acid 1,4-lactone. The mixture of Compound A and the buffered microsomes (0.5 mL) was incubated at Compound A's Km (200 μM). UDPGA was added to the incubated sample to a concentration of 4 mM to initiate the glucuronidation reaction, which was stopped after 25 minutes (37° C.) with 2 volumes (i.e., 1 mL) of acetonitrile containing 1.5 μM of Compound B as an internal standard for the subsequent LC/MS analysis. Each of the samples was then centrifuged and the resulting supernatant was diluted 1:1 with 0.1% formic acid in water and a 10 μL aliquot was injected onto the LC/MS to determine the amount of glucuronide formation. […]\nThe IC50 value of atazanavir for inhibition of glucuronidation of Compound A in the presence of rat liver microsomes was determined using a procedure similar to that just described above for human liver microsomes."}, "[3]": {"assay": "In vivo rat studies: plasma levels of Compound A with and without atazanavir", "set-up": "species or system Male Sprague-Dawley rats", "conditions": "for AUC / Cmax: male, Sprague-Dawley, plasma", "experimental": "Male Sprague-Dawley rats (4 rats/group) weighing approximately 300 grams each were given orally either 0.5% methylcellulose in water (control group) or atazanavir in 0.5% methylcellulose once a day for three days. The atazanavir daily doses were 50 mg/kg and were administered in 0.5% methylcellulose at 5 mL/kg. On day four the control rats were dosed with 10 mg/kg of Compound A in the form of a potassium salt in 0.5% methylcellulose while the treatment group received atazanavir followed by an oral dose of 10 mg/kg of Compound A (as potassium salt) in 0.5% methylcellulose. Blood samples were taken from all rats in treatment and control groups at 0, 0.25, 0.5, 1, 2, 4, 6, 8, and 24 hours post dose on day 4. Plasma levels of Compound A were determined by LC-MS/MS as follows:\nUDP-glucuronosyltransferase activity was determined by measuring the formation of the glucuronide of Compound A. HPLC analysis was carried out on an Agilent HP 1100 gradient system using the following parameters: column=Phenomenex Luna C18-2 (2 mm×150 mm, 5 μm); mobile phase=0.1% formic acid in water (solvent A) and 0.1% formic acid in acetonitrile (solvent B); flow rate=0.2 mL/min; procedure=the initial solvent composition of 10% B was increased to 80% B over 10 minutes, followed by holding solvent B constant at 80% for 3 minutes, and then returning to initial conditions for 6 minutes. The HPLC system was interfaced with a Finnigan TSQ Quantum tandem mass spectrometer. Mass spectral analyses were carried out using electrospray ionization (ESI) in the positive ion mode. The temperature for the ion transfer tube was 320° C. and the ESI ionizing voltage was maintained at 4.4 kV for all analyses. Tandem mass spectrometry (MS/MS) was based on collision-induced dissociation (CID) of ions entering the rf-only octapole region where argon was used as the collision gas at a pressure of 0.8 mtorr. A collision offset at −22 eV was used for MS/MS analyses. The CID transitions used were m/z=621.1→445.1 (Compound A glucuronide) and 431.2→306.1 (Compound B)."}, "[4]": {"assay": "In vivo human studies: plasma PK of Compound A with and without atazanavir", "set-up": "species or system healthy human male volunteers", "conditions": "for half-life: male, plasma, oral, read-out: alpha phase half-life (converted)", "experimental": "The protocol was a 2-period, fixed sequence study in healthy human male volunteers to examine the influence of multiple doses of atazanavir on a single dose of Compound A. In Period 1, 12 subjects received a single oral dose of 100 mg of Compound A (i.e., a tablet as described in Part B of Example 3) (N=10) or placebo (N=2). In Period 2, the same 12 subjects were administered 400 mg atazanavir once daily in an open-label fashion (capsules) for 9 days. On Day 7, the subjects were administered atazanavir in combination with a single oral dose of 100 mg of Compound A (tablet) or placebo (the same subjects received placebo in both study periods). All doses were administered following a moderate-fat meal. Plasma PK samples were collected for 72 hours following the dose of Compound A in both periods.\nSample preparation and analysis: The plasma samples were extracted using 96-well liquid-liquid extraction. Plasma extracts were injected onto an Ace C18 (50×3.0 mm, 3 μm, titanium rits) HPLC column and analyzed under isocratic conditions with a mobile phase consisting of 42.5/57.5 (v/v %) 0.1 mM EDTA in 0.1% formic acid/methanol, at a flow rate of 0.5 mL/minute. The sample extracts were ionized using an APCI interface and were monitored by MRM in the positive ionization mode. The dynamic range of the LC/MS/MS assay was 2-1000 ng/mL based on a 200 μL aliquot of human plasma.\nPK Calculations: Area under the curve for a plot of plasma concentration v. time to last detectable concentration (AUC0-last), was calculated using a non-compartmental model and the Linear Up/Log Down calculation method in WinNonlin Version 4.1. Data points after Cmax were fitted to a biexponential equation (A*exp(−αt)+B*exp(−βt)) using WinNonlin v4.1, and AUC values were extrapolated to infinity according to the following equation: […]=AUC0-last+Clast/β, where Clast is the last detectable concentration and β comes from the above-noted biexponential equation. Observed maximum plasma concentration (Cmax), time of Cmax (Tmax), and plasma concentration at 12 hr post dosing (C12hr) were determined by inspection."}, "[5]": {"conditions": "Compound A control group, oral 10 mg/kg (K salt), no atazanavir"}, "[6]": {"conditions": "oral Compound A 10 mg/kg (K salt) on day 4 with oral atazanavir 50 mg/kg once a day"}, "[7]": {"conditions": "single oral 100 mg Compound A tablet, atazanavir 400 mg once daily, moderate-fat meal"}},
  "note": "Like-named read-outs stand apart in the source and are kept apart here.",
  "data": [
    {"smiles": "Cc1nnc(C(=O)NC(C)(C)c2nc(C(=O)NCc3ccc(F)cc3)c([O-])c(=O)n2C)o1.[K+]", "values": [
      {"measurement": "weight increase (hygroscopicity)", "setting": "[1]", "value": 1.8, "unit": "%"}
    ]},
    {"smiles": "COC(=O)N[C@H](C(=O)N[C@@H](Cc1ccccc1)[C@@H](O)CN(Cc1ccc(-c2ccccn2)cc1)NC(=O)[C@@H](NC(=O)OC)C(C)(C)C)C(C)(C)C", "note": "(relative stereo) [atazanavir, [3S-(3R*, 8′R*, 9′R*, 12R*)]-3,12-bis(1,1-dimethylethyl)-8-hydroxy-4,11-dioxo-9-(phenylmethyl)-6-[[4-(2-pyridinyl)phenylmethyl]2,5,6,10,13-pentaazatetradecanedioic] acid, dimethyl ester]", "values": [
      {"measurement": "inhibition of the glucuronidation of Compound A", "setting": "[2]", "value": 41, "unit": "%"}
    ]},
    {"smiles": "Cc1nnc(C(=O)NC(C)(C)c2nc(C(=O)NCc3ccc(F)cc3)c(O)c(=O)n2C)o1", "note": "[Compound A, N-(4-fluorobenzyl)-5-hydroxy-1-methyl-2-(1-methyl-1-{[(5-methyl-1,3,4-oxadiazol-2-yl)carbonyl]amino}ethyl)-6-oxo-1,6-dihydroxypyrimidine-4-carboxamide]", "values": [
      {"measurement": "increase of plasma levels of Compound A by atazanavir", "setting": "[3]; atazanavir 50 mg/kg plus Compound A 10 mg/kg versus Compound A alone", "value": "about 3 fold"},
      {"measurement": "AUC", "setting": "[3]; [5]", "value": "2.9 ± 0.6", "unit": "µM·h"},
      {"measurement": "Cmax", "setting": "[3]; [5]", "value": "2.3 ± 0.9", "unit": "µM"},
      {"measurement": "AUC", "setting": "[3]; [6]", "value": "9.9 ± 3.7", "unit": "µM·h"},
      {"measurement": "Cmax", "setting": "[3]; [6]", "value": "7.2 ± 6.1", "unit": "µM"},
      {"measurement": "half-life", "setting": "[4]; 100 mg Compound A alone", "value": 1.1, "unit": "h"},
      {"measurement": "half-life", "setting": "[4]; 100 mg Compound A in the presence of atazanavir 400 mg once daily", "value": 1.4, "unit": "h"},
      {"measurement": "AUC0-last GMR in the presence versus absence of atazanavir", "setting": "[4]; [7]", "value": 1.73},
      {"measurement": "Cmax GMR in the presence versus absence of atazanavir", "setting": "[4]; [7]", "value": 1.53},
      {"measurement": "geometric mean ratio (GMR) 12 hr concentration in the presence versus absence of atazanavir", "setting": "[4]; [7]", "value": 1.96}
    ]}
  ]
}
